One may read the IC50 as the midpoint of a concentration-inhibition curve. Read a high IC50 as weaker potency in that assay. For orientation: AUC(0-inf) means total exposure, with the tail of the curve extrapolated. A higher AUC(0-inf) goes with more exposure. For orientation: MRT last means a mean duration of stay, worked out from the concentration-time curve. The term EC50 denotes the midpoint of the concentration-response curve. For orientation: Tmax means the time at which the peak concentration occurs. As usually defined, the AUC(0-t) is the area under the concentration-time curve up to a stated or last time point. A low value points to low exposure. By half-life is commonly meant the time needed for the level to fall by half in the phase considered. By Cmax is commonly meant the highest concentration seen after dosing. Broadly, the CL/F is the apparent clearance, not corrected for the fraction that reaches the circulation. As usually defined, the clearance is the volume of plasma or blood freed of the substance per unit of time. As usually defined, the MRT inf is the average time that molecules of a dose stay in the body. What is called CC50 is the concentration that lowers cell viability or growth by half.

Series [1] in a line: Acute toxicity in mouse at 1.2 g/Kg,IG assessed as brain damage by H and E staining based analysis. Conditions: in vivo, po, 1200 mg/kg. It counts as tissue-based.
The nature of series [2]: Acute toxicity in mouse at 1.2 g/Kg,IG assessed as spleen damage by H and E staining based analysis. Conditions: in vivo, po, 1200 mg/kg.
The target in series [3] is Human immunodeficiency virus type 1 reverse transcriptase (Human immunodeficiency virus 1, UniProt Q72547). The experiment in a line: Inhibition of wild type HIV-1 Reverse transcriptase.
Series [4] is described as follows: AUC (0 to infinity) in Sprague-Dawley rat at 5 mg/kg,po. It counts as ADME, organism-based. Also on record: time infinity, dose 5 mg/kg, route po. Conditions: in vivo.
Series [5] in a line: MRT (0 to t) in Sprague-Dawley rat at 1 mg/kg,iv. The class given is ADME, organism-based. Conditions: in vivo.
The subject of series [6] is Human immunodeficiency virus 1. Briefly: Antiviral activity against HIV-1 K103N-Y181C mutant infected in human MT4 cells assessed as reduction in viral replication by MTT assay. The class given is functional, organism-based. As to conditions: Human immunodeficiency virus 1, K103N-Y181C mutant.
Series [7] is described as follows: Acute toxicity in mouse at 1.2 g/Kg,IG assessed as lung damage by H and E staining based analysis. As to conditions: in vivo, po, 1200 mg/kg.
A short description of series [8]: Tmax in Sprague-Dawley rat at 1 mg/kg,iv. The class given is ADME, organism-based. As to conditions: in vivo.
In series [9] the test system is Human immunodeficiency virus 1. Briefly: Antiviral activity against HIV-1 K103N mutant infected in human MT4 cells assessed as reduction in viral replication by MTT assay. The class given is functional, organism-based. As to conditions: Human immunodeficiency virus 1, K103N mutant. (In general: Tetrazolium assays rely on reduction of a dye to a coloured formazan, in cell work by metabolically active cells.)

For series [10], the target named is Cytochrome P450 2C19 (Homo sapiens, UniProt P33261). The experiment in a line: Inhibition of CYP2C19 (unknown origin). It counts as ADME.
Cytochrome P450 2C19, sequence (P33261 whole entry): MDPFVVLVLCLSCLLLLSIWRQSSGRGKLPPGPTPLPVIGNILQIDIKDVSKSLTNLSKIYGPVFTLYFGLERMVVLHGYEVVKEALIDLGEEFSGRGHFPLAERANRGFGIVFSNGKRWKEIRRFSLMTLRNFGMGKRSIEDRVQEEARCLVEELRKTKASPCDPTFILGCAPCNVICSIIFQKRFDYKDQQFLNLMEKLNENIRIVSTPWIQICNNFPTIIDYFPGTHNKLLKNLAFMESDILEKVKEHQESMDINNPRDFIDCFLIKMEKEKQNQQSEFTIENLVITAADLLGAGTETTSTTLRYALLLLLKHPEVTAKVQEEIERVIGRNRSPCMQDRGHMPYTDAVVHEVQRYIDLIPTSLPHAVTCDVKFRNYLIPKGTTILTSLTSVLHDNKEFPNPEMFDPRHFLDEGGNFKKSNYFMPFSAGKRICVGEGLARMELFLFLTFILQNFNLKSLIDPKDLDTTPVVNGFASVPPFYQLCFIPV
Series [11] in a line: Acute toxicity in mouse at 1.2 g/Kg,IG assessed as behavioral abnormalities. Conditions: in vivo, po, 1200 mg/kg.
Series [12] in a line: Acute toxicity in mouse at 1.2 g/Kg,IG assessed as mouse death. As to conditions: in vivo, po, 1200 mg/kg.
Series [13] in a line: AUC (0 to t) in Sprague-Dawley rat at 1 mg/kg,iv. The class given is ADME, organism-based. Conditions: in vivo. Also on record: dose 1 mg/kg, route iv.
Series [14] can be described thus: Acute toxicity in mouse at 1.2 g/Kg,IG assessed as kidney damage by H and E staining based analysis. Conditions: in vivo, po, 1200 mg/kg.
A short description of series [15]: AUC (0 to infinity) in Sprague-Dawley rat at 1 mg/kg,iv. It counts as ADME, organism-based. As to conditions: in vivo. Further details: time infinity, dose 1 mg/kg, route iv.
For series [16], the target named is T1, Cytochrome P450 3A4 (Homo sapiens, UniProt P08684). The experiment in a line: Inhibition of CYP3A4T (unknown origin). The class given is ADME.
T1 sequence (P08684 whole entry): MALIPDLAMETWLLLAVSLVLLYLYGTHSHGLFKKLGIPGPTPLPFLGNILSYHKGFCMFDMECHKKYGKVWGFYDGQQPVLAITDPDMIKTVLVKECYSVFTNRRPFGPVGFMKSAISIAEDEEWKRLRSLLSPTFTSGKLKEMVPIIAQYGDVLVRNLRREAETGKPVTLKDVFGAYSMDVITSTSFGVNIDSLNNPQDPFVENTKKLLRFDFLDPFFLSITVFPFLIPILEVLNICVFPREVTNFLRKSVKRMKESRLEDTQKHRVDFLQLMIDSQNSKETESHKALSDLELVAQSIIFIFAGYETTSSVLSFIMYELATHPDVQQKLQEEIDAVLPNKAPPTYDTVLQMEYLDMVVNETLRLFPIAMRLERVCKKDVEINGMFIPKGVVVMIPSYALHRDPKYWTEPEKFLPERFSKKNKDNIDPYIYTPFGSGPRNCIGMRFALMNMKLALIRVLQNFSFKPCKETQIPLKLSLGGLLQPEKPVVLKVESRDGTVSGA
The nature of series [17]: Half life in Sprague-Dawley rat at 1 mg/kg,iv. The class given is ADME, organism-based. As to conditions: in vivo.
A short description of series [18]: Cmax in Sprague-Dawley rat at 5 mg/kg,po. The class given is ADME, organism-based. Further details: dose 5 mg/kg, route po. Conditions: in vivo.
Series [19] relates to Human immunodeficiency virus 1. Briefly: Antiviral activity against HIV-1 L100I mutant infected in human MT4 cells assessed as reduction in viral replication by MTT assay. The class given is functional, organism-based. As to conditions: Human immunodeficiency virus 1, L100I mutant.
Series [20] is described as follows: Acute toxicity in mouse at 1.2 g/Kg,IG assessed as liver damage by H and E staining based analysis. Conditions: in vivo, po, 1200 mg/kg.
Series [21] is described as follows: MRT (0 to t) in Sprague-Dawley rat at 5 mg/kg,po. It counts as ADME, organism-based. As to conditions: in vivo.
Series [22] is described as follows: Acute toxicity in mouse at 1.2 g/Kg,IG assessed as heart damage by H and E staining based analysis. The class given is tissue-based. Conditions: in vivo, po, 1200 mg/kg.
Series [23] is described as follows: Tmax in Sprague-Dawley rat at 5 mg/kg,po. It counts as ADME, organism-based. As to conditions: in vivo.
The nature of series [24]: AUC (0 to t) in Sprague-Dawley rat at 5 mg/kg,po. The class given is ADME, organism-based. Further details: dose 5 mg/kg, route po. As to conditions: in vivo.
The test system of series [25] is Human immunodeficiency virus 1. The experiment in a line: Antiviral activity against HIV-1 F227L-V106A mutant infected in human MT4 cells assessed as reduction in viral replication by MTT assay. As to conditions: Human immunodeficiency virus 1, F227L-V106A mutant. The class given is functional, organism-based.
Series [26] deals with T1, Cytochrome P450 3A4. The experiment in a line: Inhibition of CYP3A4M (unknown origin). The class given is ADME.
For series [27], the system named is Human immunodeficiency virus 1. Briefly: Antiviral activity against HIV-1 ROD infected in human MT4 cells assessed as reduction in viral replication by MTT assay. The class given is functional, organism-based.
A short description of series [28]: Clearance in Sprague-Dawley rat at 5 mg/kg,po. The class given is ADME, organism-based. As to conditions: in vivo.
Series [29] deals with Human immunodeficiency virus 1. Briefly: Antiviral activity against HIV-1 Y188L mutant infected in human MT4 cells assessed as reduction in viral replication by MTT assay. The class given is functional, organism-based. Conditions: Human immunodeficiency virus 1, Y188L mutant.
The subject of series [30] is Human immunodeficiency virus 1. Briefly: Antiviral activity against HIV-1 Y181C mutant infected in human MT4 cells assessed as reduction in viral replication by MTT assay. The class given is functional, organism-based. As to conditions: Human immunodeficiency virus 1, Y181C mutant.
Series [31] can be described thus: Half life in Sprague-Dawley rat at 5 mg/kg,po. The class given is ADME, organism-based. Conditions: in vivo.
The target of series [32] is Cytochrome P450 2C9 (Homo sapiens, UniProt P11712). The experiment in a line: Inhibition of CYP2C9 (unknown origin). The class given is ADME.
Cytochrome P450 2C9, sequence (P11712 whole entry): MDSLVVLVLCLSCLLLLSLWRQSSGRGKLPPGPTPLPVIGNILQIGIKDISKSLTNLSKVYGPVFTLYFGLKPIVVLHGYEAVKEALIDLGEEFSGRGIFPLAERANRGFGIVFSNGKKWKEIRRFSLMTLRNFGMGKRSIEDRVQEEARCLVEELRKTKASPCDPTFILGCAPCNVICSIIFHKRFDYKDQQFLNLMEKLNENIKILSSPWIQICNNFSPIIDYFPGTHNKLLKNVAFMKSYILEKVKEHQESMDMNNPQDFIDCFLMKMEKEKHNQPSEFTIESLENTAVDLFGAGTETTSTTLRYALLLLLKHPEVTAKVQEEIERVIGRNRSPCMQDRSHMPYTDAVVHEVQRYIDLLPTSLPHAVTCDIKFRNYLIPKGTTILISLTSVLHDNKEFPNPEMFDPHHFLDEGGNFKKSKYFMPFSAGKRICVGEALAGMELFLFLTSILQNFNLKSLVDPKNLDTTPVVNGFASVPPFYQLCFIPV
Series [33] is described as follows: Clearance in Sprague-Dawley rat at 1 mg/kg,iv. It counts as ADME, organism-based. Conditions: in vivo.
The test system of series [34] is Human immunodeficiency virus 1. The experiment in a line: Antiviral activity against HIV-1 IIIB infected in human MT4 cells assessed as reduction in viral replication by MTT assay. It counts as functional, organism-based. Conditions: Human immunodeficiency virus 1, IIIB.
Series [35] is described as follows: Selectivity index, ratio of CC50 for cytotoxicity against human MT4 cells to EC50 of Anti-HIV activity against HIV-1 IIIB infected in human MT4 cells. The class given is toxicity, cell-based. Conditions: read-out: Ratio CC50/EC50.
Series [36] has as its system Human immunodeficiency virus 1. The experiment in a line: Antiviral activity against HIV-1 E138K mutant infected in human MT4 cells assessed as reduction in viral replication by MTT assay. As to conditions: Human immunodeficiency virus 1, E138K mutant. It counts as functional, organism-based.
The target in series [37] is T2, Cytochrome P450 1A2 (Homo sapiens, UniProt P05177).
T2 sequence (P05177 whole entry): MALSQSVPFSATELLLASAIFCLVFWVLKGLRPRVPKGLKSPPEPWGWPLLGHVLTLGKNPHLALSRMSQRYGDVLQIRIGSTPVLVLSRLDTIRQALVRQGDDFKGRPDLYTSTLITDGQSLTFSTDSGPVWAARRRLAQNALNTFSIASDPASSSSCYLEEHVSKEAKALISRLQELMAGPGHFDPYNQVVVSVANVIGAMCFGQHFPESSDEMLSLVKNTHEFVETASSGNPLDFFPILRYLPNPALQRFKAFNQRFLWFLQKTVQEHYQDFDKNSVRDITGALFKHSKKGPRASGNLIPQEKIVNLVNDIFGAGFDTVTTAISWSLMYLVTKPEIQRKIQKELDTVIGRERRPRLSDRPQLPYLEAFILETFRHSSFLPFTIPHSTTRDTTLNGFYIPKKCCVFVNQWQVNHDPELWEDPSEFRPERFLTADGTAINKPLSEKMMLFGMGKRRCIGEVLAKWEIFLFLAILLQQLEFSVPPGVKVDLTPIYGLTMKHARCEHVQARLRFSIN
The experiment in a line: Inhibition of CYP1A2 (unknown origin). It counts as ADME.

Series [38] in a line: Acute toxicity in mouse at 1.2 g/Kg,IG assessed as change in body weight. As to conditions: in vivo, po, 1200 mg/kg.
Series [39] can be described thus: MRT (0 to infinity) in Sprague-Dawley rat at 5 mg/kg,po. The class given is ADME, organism-based. Conditions: in vivo.
A short description of series [40]: MRT (0 to infinity) in Sprague-Dawley rat at 1 mg/kg,iv. It counts as ADME, organism-based. As to conditions: in vivo.
The target of series [41] is Voltage-gated inwardly rectifying potassium channel KCNH2 (Homo sapiens, UniProt Q12809). Briefly: Inhibition of human ERG potassium channel expressed in CHO cells by automated patch clamp electrophysiological assay. It counts as toxicity, cell-based. A general note: Patch clamp records ionic current or voltage across a cell membrane.
Voltage-gated inwardly rectifying potassium channel KCNH2, sequence (Q12809 whole entry): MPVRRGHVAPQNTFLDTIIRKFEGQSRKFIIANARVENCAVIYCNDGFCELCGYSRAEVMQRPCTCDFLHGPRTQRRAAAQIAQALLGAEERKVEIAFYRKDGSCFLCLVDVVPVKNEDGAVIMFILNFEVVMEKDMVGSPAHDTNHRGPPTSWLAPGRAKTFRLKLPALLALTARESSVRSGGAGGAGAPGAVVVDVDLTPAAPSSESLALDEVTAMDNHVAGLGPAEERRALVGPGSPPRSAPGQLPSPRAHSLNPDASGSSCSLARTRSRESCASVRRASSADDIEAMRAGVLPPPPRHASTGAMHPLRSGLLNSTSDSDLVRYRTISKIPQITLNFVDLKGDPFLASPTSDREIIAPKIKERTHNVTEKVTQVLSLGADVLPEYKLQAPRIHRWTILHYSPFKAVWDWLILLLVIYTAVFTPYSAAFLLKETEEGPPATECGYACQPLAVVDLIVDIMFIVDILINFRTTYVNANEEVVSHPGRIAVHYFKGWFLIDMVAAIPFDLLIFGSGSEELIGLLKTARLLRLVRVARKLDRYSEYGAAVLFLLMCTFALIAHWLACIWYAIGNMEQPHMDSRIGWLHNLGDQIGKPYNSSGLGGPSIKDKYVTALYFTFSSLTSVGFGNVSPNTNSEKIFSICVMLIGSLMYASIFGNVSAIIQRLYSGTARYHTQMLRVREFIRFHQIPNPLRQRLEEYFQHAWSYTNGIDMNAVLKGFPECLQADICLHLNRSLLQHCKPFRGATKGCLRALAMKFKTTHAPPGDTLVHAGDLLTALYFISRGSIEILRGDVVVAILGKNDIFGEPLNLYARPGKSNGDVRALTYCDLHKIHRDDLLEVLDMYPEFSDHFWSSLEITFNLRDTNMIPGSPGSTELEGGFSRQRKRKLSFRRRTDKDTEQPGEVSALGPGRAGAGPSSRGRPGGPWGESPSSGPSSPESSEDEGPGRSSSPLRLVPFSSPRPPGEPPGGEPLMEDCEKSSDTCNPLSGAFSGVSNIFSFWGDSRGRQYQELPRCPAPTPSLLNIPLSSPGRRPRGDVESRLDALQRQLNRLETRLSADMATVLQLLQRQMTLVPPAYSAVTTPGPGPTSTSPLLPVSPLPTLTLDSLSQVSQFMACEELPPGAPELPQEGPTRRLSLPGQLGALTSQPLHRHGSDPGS
The target of series [42] is Cytochrome P450 2D6 (Homo sapiens, UniProt P10635). Briefly: Inhibition of CYP2D6 (unknown origin). The class given is ADME.
Cytochrome P450 2D6, sequence (P10635 whole entry): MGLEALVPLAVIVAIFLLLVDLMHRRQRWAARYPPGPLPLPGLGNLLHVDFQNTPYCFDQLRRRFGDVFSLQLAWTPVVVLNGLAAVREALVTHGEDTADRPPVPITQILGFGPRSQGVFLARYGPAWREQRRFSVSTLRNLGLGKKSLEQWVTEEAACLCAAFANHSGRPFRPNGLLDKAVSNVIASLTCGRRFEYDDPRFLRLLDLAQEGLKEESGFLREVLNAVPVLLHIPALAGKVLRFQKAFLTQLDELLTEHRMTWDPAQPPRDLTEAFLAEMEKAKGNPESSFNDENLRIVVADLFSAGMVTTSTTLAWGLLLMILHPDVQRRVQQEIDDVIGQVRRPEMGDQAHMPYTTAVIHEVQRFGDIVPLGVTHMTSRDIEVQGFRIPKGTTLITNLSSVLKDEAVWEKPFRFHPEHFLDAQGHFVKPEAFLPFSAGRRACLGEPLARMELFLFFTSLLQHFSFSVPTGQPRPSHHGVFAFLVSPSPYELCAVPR
The nature of series [43]: Cmax in Sprague-Dawley rat at 1 mg/kg,iv. The class given is ADME, organism-based. Also on record: dose 1 mg/kg, route iv. As to conditions: in vivo.
A short description of series [44]: Cytotoxicity against human MT4 cells assessed as reduction on cell growth by MTT assay. The class given is toxicity, cell-based.

In the case of `Cc1cccc(-c2cc(C#N)cc(Oc3c(C(F)(F)F)ccn(Cc4n[nH]c(=O)n4C)c3=O)c2)c1`, the Activity result in series [1], in [2], in [7], in series [11], in [12] and in series [14] was “Non-Toxic” each time. Also, the Activity entry in series [20], in series [22] and in series [38] was “Non-Toxic” throughout. The IC50 in series [3] is 41 nM; in [10], 28600 nM; in series [16], 25300 nM; in [26] it was above 50000 nM; in series [32], 38300 nM; in [37], above 50000 nM. In addition, the results for the IC50 in [41] and in [42] were above 200000 nM and above 50000 nM, respectively. Besides, the figures for the AUC(0-inf) in [4] and in series [15] were 6590 ng·h/mL and 940 ng·h/mL, respectively. The values for the MRT last in [5] and in series [21] were 2.03 h and 6.79 h, respectively. Further, the EC50 is 260 nM in series [6]; 13 nM in series [9]; 24 nM in series [19]; 27500 nM in series [25]; above 35000 nM in series [27]; 760 nM in series [29]. The values for the EC50 in series [30], in series [34] and in series [36] were 58 nM, 13 nM and 25 nM, respectively. In addition, the Tmax amounted to 4.8 min in series [8] and 6.67 h in series [23]. The AUC(0-t) in [13] is 892 ng·h/mL; in series [24], 4980 ng·h/mL. Also, the half-life is 1.9 h in series [17] and 8.45 h in series [31]. Besides, the Cmax in series [18] is 583 ng/mL; in [43], 469 ng/mL. In series [28], this compound gave a CL/F of 13.2 mL/min/kg. In addition, the clearance in [33] is 17.9 mL/min/kg. In [35], the selectivity ratio amounted to 2020. Further, the MRT inf was 13.9 h in series [39] and 2.48 h in series [40].
In series [42], `COc1ccc2c(c1)[C@]13CCCC[C@@H]1[C@H](C2)N(C)CC3` [DEXTROMETHORPHAN] displayed an IC50 of 43 nM.
`Cn1c(Cn2ccc(C(F)(F)F)c(Oc3cc(Cl)cc(C#N)c3)c2=O)n[nH]c1=O` [DORAVIRINE]: the IC50 in [3] was found to be 44 nM; in [41] it was 88000 nM. In addition, the EC50 in [6] was 142 nM; in series [9] it was 42 nM; in series [19] it was 6.6 nM; in [25] it was 17400 nM; in series [27], above 35000 nM; in series [29], 500 nM. Further, the EC50 was 25 nM in series [30] and 7.5 nM in series [36]. The CC50 in series [44] turned out to be 293000 nM. The selectivity ratio in series [35] was 22600.
